Test results: PubChem BioAssay (NCI)
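Results reflect a 48-hour exposure of cells in 96-well plates to compound at five concentrations. GI50: concentration for 50% inhibition of growth. TGI denotes the concentration required for complete inhibition of growth.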

Legend:
Experiment in all cases: DTP human tumour cell line panel, 48 h
786-0 renal = tested on: 786-0 renal
A498 renal = tested on: A498 renal
A549 NSCLC = tested on: A549 NSCLC
ACHN renal = tested on: ACHN renal
CCRF-CEM leukemia = tested on: CCRF-CEM leukemia
COLO 205 colon = tested on: COLO 205 colon
DU-145 prostate = tested on: DU-145 prostate
EKVX NSCLC = tested on: EKVX NSCLC
HCC-2998 colon = tested on: HCC-2998 colon
HCT-116 colon = tested on: HCT-116 colon
HCT-15 colon = tested on: HCT-15 colon
HL-60(TB) leukemia = tested on: HL-60(TB) leukemia
HOP-62 NSCLC = tested on: HOP-62 NSCLC
HS 578T breast = tested on: HS 578T breast
IGROV1 ovarian = tested on: IGROV1 ovarian
K-562 leukemia = tested on: K-562 leukemia
KM12 colon = tested on: KM12 colon
MALME-3M melanoma = tested on: MALME-3M melanoma
MCF7 breast = tested on: MCF7 breast
MDA-MB-231 breast = tested on: MDA-MB-231 breast
MOLT-4 leukemia = tested on: MOLT-4 leukemia
NCI-H226 lung = tested on: NCI-H226 lung
NCI-H23 lung = tested on: NCI-H23 lung
NCI-H460 lung = tested on: NCI-H460 lung
NCI-H522 lung = tested on: NCI-H522 lung
NCI/ADR-RES ovarian = tested on: NCI/ADR-RES ovarian
OVCAR-3 ovarian = tested on: OVCAR-3 ovarian
OVCAR-5 ovarian = tested on: OVCAR-5 ovarian
OVCAR-8 ovarian = tested on: OVCAR-8 ovarian
PC-3 prostate = tested on: PC-3 prostate
RPMI-8226 leukemia = tested on: RPMI-8226 leukemia
RXF 393 renal = tested on: RXF 393 renal
SF-268 CNS = tested on: SF-268 CNS
SF-295 CNS = tested on: SF-295 CNS
SF-539 CNS = tested on: SF-539 CNS
SK-MEL-28 melanoma = tested on: SK-MEL-28 melanoma
SK-MEL-5 melanoma = tested on: SK-MEL-5 melanoma
SK-OV-3 ovarian = tested on: SK-OV-3 ovarian
SN12C renal = tested on: SN12C renal
SNB-19 CNS = tested on: SNB-19 CNS
SR leukemia = tested on: SR leukemia
SW-620 colon = tested on: SW-620 colon
T-47D breast = tested on: T-47D breast
TK-10 renal = tested on: TK-10 renal
U251 CNS = tested on: U251 CNS
UACC-257 melanoma = tested on: UACC-257 melanoma
UACC-62 melanoma = tested on: UACC-62 melanoma
UO-31 renal = tested on: UO-31 renal
CAKI-1 renal = tested on: CAKI-1 renal
HOP-92 NSCLC = tested on: HOP-92 NSCLC
HT29 colon = tested on: HT29 colon
LOX IMVI melanoma = tested on: LOX IMVI melanoma
M14 melanoma = tested on: M14 melanoma
MDA-MB-435 = tested on: MDA-MB-435
OVCAR-4 ovarian = tested on: OVCAR-4 ovarian
SK-MEL-2 melanoma = tested on: SK-MEL-2 melanoma
SNB-75 CNS = tested on: SNB-75 CNS

COc1ccc(OC)c2c(C(C)=O)cccc12
TGI (786-0 renal): > 100 µM
TGI (A498 renal): > 100 µM
TGI (A549 NSCLC): > 100 µM
TGI (ACHN renal): > 100 µM
TGI (CCRF-CEM leukemia): > 100 µM
TGI (COLO 205 colon): > 100 µM
TGI (DU-145 prostate): > 100 µM
TGI (EKVX NSCLC): > 100 µM
TGI (HCC-2998 colon): > 100 µM
TGI (HCT-116 colon): > 100 µM
TGI (HCT-15 colon): > 100 µM
TGI (HL-60(TB) leukemia): > 100 µM
TGI (HOP-62 NSCLC): > 100 µM
TGI (HS 578T breast): > 100 µM
TGI (IGROV1 ovarian): > 100 µM
TGI (K-562 leukemia): > 100 µM
TGI (KM12 colon): > 100 µM
TGI (MALME-3M melanoma): > 100 µM
TGI (MCF7 breast): > 100 µM
TGI (MDA-MB-231 breast): > 100 µM
TGI (MOLT-4 leukemia): > 100 µM
TGI (NCI-H226 lung): > 100 µM
TGI (NCI-H23 lung): > 100 µM
TGI (NCI-H460 lung): > 100 µM
TGI (NCI-H522 lung): > 100 µM
TGI (NCI/ADR-RES ovarian): > 100 µM
TGI (OVCAR-3 ovarian): > 100 µM
TGI (OVCAR-5 ovarian): > 100 µM
TGI (OVCAR-8 ovarian): > 100 µM
TGI (PC-3 prostate): > 100 µM
TGI (RPMI-8226 leukemia): > 100 µM
TGI (RXF 393 renal): > 100 µM
TGI (SF-268 CNS): > 100 µM
TGI (SF-295 CNS): > 100 µM
TGI (SF-539 CNS): > 100 µM
TGI (SK-MEL-28 melanoma): > 100 µM
TGI (SK-MEL-5 melanoma): > 100 µM
TGI (SK-OV-3 ovarian): > 100 µM
TGI (SN12C renal): > 100 µM
TGI (SNB-19 CNS): > 100 µM
TGI (SR leukemia): > 100 µM
TGI (SW-620 colon): > 100 µM
TGI (T-47D breast): > 100 µM
TGI (TK-10 renal): > 100 µM
TGI (U251 CNS): > 100 µM
TGI (UACC-257 melanoma): > 100 µM
TGI (UACC-62 melanoma): > 100 µM
TGI (UO-31 renal): > 100 µM

CN1C2C=CC(=O)C1C1C(=O)N(c3ccccc3)C(=O)C12 (centres undefined)
GI50 (786-0 renal): 3.57 µM
TGI (786-0 renal): 15.4 µM
GI50 (A498 renal): 15.6 µM
TGI (A498 renal): 29.5 µM
GI50 (A549 NSCLC): 11.1 µM
TGI (A549 NSCLC): 29.1 µM
GI50 (ACHN renal): 6.93 µM
TGI (ACHN renal): 20.9 µM
GI50 (CAKI-1 renal): 1.66 µM
TGI (CAKI-1 renal): 4.27 µM
GI50 (CCRF-CEM leukemia): 7.51 µM
TGI (CCRF-CEM leukemia): > 100 µM
GI50 (COLO 205 colon): 7.81 µM
TGI (COLO 205 colon): 22 µM
GI50 (DU-145 prostate): 2.34 µM
TGI (DU-145 prostate): 6.69 µM
GI50 (EKVX NSCLC): 14.4 µM
TGI (EKVX NSCLC): 32.7 µM
GI50 (HCC-2998 colon): 13.3 µM
TGI (HCC-2998 colon): 29.3 µM
GI50 (HCT-116 colon): 3.57 µM
TGI (HCT-116 colon): 16.2 µM
GI50 (HCT-15 colon): 5.52 µM
TGI (HCT-15 colon): 20.3 µM
GI50 (HL-60(TB) leukemia): 2.19 µM
TGI (HL-60(TB) leukemia): > 100 µM
GI50 (HOP-62 NSCLC): 12.4 µM
TGI (HOP-62 NSCLC): 28.6 µM
GI50 (HOP-92 NSCLC): 0.085 µM
TGI (HOP-92 NSCLC): 0.701 µM
GI50 (HS 578T breast): 4.55 µM
TGI (HS 578T breast): 22.3 µM
GI50 (HT29 colon): 3.92 µM
TGI (HT29 colon): 23.4 µM
GI50 (IGROV1 ovarian): 12.1 µM
TGI (IGROV1 ovarian): 27.9 µM
GI50 (K-562 leukemia): 10.2 µM
TGI (K-562 leukemia): > 100 µM
GI50 (KM12 colon): 5.17 µM
TGI (KM12 colon): 18.4 µM
GI50 (LOX IMVI melanoma): 3.74 µM
TGI (LOX IMVI melanoma): 13.3 µM
GI50 (M14 melanoma): 9.8 µM
TGI (M14 melanoma): 24.6 µM
GI50 (MCF7 breast): 4.01 µM
TGI (MCF7 breast): 16.5 µM
GI50 (MDA-MB-231 breast): 15.3 µM
TGI (MDA-MB-231 breast): 37.8 µM
GI50 (MDA-MB-435): 3.44 µM
TGI (MDA-MB-435): 22.8 µM
GI50 (MOLT-4 leukemia): 5.99 µM
TGI (MOLT-4 leukemia): > 100 µM
GI50 (NCI-H226 lung): 17.6 µM
TGI (NCI-H226 lung): 57.3 µM
GI50 (NCI-H23 lung): 13.2 µM
TGI (NCI-H23 lung): 37.1 µM
GI50 (NCI-H460 lung): 12.7 µM
TGI (NCI-H460 lung): 28.9 µM
GI50 (NCI-H522 lung): 14.3 µM
TGI (NCI-H522 lung): 79.9 µM
GI50 (NCI/ADR-RES ovarian): 17 µM
TGI (NCI/ADR-RES ovarian): 95.3 µM
GI50 (OVCAR-3 ovarian): 2.35 µM
TGI (OVCAR-3 ovarian): 6.73 µM
GI50 (OVCAR-4 ovarian): 11.7 µM
TGI (OVCAR-4 ovarian): 38.7 µM
GI50 (OVCAR-5 ovarian): 5.95 µM
TGI (OVCAR-5 ovarian): 21.6 µM
GI50 (OVCAR-8 ovarian): 4.22 µM
TGI (OVCAR-8 ovarian): 20.3 µM
GI50 (PC-3 prostate): 5.8 µM
TGI (PC-3 prostate): 47.3 µM
GI50 (SF-268 CNS): 3.99 µM
TGI (SF-268 CNS): 17.3 µM
GI50 (SF-295 CNS): 3.06 µM
TGI (SF-295 CNS): 36.7 µM
GI50 (SF-539 CNS): 4.87 µM
TGI (SF-539 CNS): 17.7 µM
GI50 (SK-MEL-2 melanoma): 8.12 µM
TGI (SK-MEL-2 melanoma): 42 µM
GI50 (SK-MEL-28 melanoma): 3.62 µM
TGI (SK-MEL-28 melanoma): 16.7 µM
GI50 (SK-MEL-5 melanoma): 11.8 µM
TGI (SK-MEL-5 melanoma): 24.3 µM
GI50 (SK-OV-3 ovarian): 26.7 µM
TGI (SK-OV-3 ovarian): > 100 µM
GI50 (SN12C renal): 5.09 µM
TGI (SN12C renal): 31.9 µM
GI50 (SNB-19 CNS): 13.3 µM
TGI (SNB-19 CNS): 29.5 µM
GI50 (SNB-75 CNS): 13 µM
TGI (SNB-75 CNS): 29.2 µM
GI50 (SW-620 colon): 3.09 µM
TGI (SW-620 colon): 10.7 µM
GI50 (T-47D breast): 5.65 µM
TGI (T-47D breast): 22.6 µM
GI50 (TK-10 renal): 4.55 µM
TGI (TK-10 renal): 18.9 µM
GI50 (U251 CNS): 7.16 µM
TGI (U251 CNS): 20.8 µM
GI50 (UACC-257 melanoma): 2.42 µM
TGI (UACC-257 melanoma): 7.47 µM
GI50 (UACC-62 melanoma): 11.5 µM
TGI (UACC-62 melanoma): 24.3 µM
GI50 (UO-31 renal): 3.49 µM
TGI (UO-31 renal): 17.9 µM
